“Also recorded” adds a separate entry of the source. One block for each compound: values may come before it.
Legend:
FXR protein = molecular target: T1, FXR protein (Homo sapiens, UniProt Q96RI1); assay: Surface plasmon resonance (SPR), FXR immobilized on CM5 chip; type: binding; details: SPR steady-state affinity fit
T1 sequence (Q96RI1 1-486): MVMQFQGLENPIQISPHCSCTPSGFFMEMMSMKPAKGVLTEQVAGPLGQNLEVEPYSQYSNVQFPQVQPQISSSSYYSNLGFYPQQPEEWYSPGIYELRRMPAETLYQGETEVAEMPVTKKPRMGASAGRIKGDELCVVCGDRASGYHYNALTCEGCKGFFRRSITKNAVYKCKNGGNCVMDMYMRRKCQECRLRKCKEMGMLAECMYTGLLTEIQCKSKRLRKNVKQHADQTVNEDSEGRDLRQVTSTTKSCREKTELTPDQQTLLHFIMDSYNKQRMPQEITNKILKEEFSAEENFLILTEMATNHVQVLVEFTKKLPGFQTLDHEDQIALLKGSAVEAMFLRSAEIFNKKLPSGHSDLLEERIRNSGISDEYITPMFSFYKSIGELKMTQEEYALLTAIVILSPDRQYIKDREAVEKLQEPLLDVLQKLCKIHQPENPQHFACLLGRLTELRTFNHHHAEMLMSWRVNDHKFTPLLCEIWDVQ
Description: SPR analysis was performed by a Biacore S200 system (Cytiva, USA) equipped with a CM5 sensor chip. The FXR protein was immobilized on the chip via the standard amine coupling protocol, with the protein dissolved in a sodium acetate buffer at pH 4.5 and a concentration of 10 mM. […] Equilibrium dissociation constants (KD) were determined by fitting the response curves using the steady-state affinity model available in the Biacore S200 Evaluation Software.

GPAT4 [1] = assay: GPAT4 expression in oleic acid-induced HepG2 cells (western blot); type: cell-based, human; details: HepG2, OA 24 h; 15% SNS-containing serum or OCA 1 μM
Description: (§1) The HepG2 cell line was purchased from the American Type Culture Collection (Manassas, USA) and cultured in RPMI 1640 medium (Solarbio, China) with 10% fetal bovine serum (Gibco, USA) in an atmosphere with 5% CO2 and 100% humidity at 37 ℃. Oleic acid (OA) was purchased from Shanghai Macklin Biochemical Co., Ltd. (C11391320, Macklin, China). […] Cells were inoculated into 6-well plates and 96-well plates and treated with OA solution and SNS/NS-containing serum for 24 h.
(§2) Total protein was extracted using a protein extraction kit (PC201Plus, Epizyme). Then, the protein concentration was measured using a BCA kit (PC0020, Solarbio). The 50 μg of the total protein samples were loaded onto an SDS-PAGE gel. Following electrophoresis, the protein was transferred into polyvinylidene fluoride (PVDF) membranes. […] Finally, the immune bands were detected using an ECL detection kit (sb-wb012, Shanghai Shenger Biotechnology Co., Ltd, China). The average gray value was quantified using Image J software.

MAFLD mice = assay: HFD-induced MAFLD mouse model: body/liver weight, histology, serum biochemistry, hepatic TBA; type: in vivo, C57BL/6N mice; details: SNS 5.2 g/kg/d or OCA 10 mg/kg/d orally for 2 weeks
Source text: (§3) A standard diet was fed to the NC group, while HFD (D12451, Huanyu Hekang Biotechnology, China) was fed to the other four groups for 12 weeks. […] During this period, mice in the NC group and HFD group were given isovolumetric distilled water respectively.
Serum samples were collected to measure the content of TG, total cholesterol (TC), alanine aminotransferase (ALT), aspartate aminotransferase (AST), high-density lipoprotein cholesterol (HDL-C), and low-density lipoprotein cholesterol (LDL-C). The Reado/Changchun Huili kit was used for the assay, measured by a fully automatic biochemistry analyzer.
The TBA content in liver tissue was detected by a TBA assay kit (E003-2-1, Nanjing Jiancheng Bioengineering Institute, China). According to the kit instruction manual, the liver tissues were subjected to lysis, after which the supernatant was collected and added to a 96-well plate. Blank controls and standard controls were set up. Subsequently, 180 μL of Reagent 1 was added, followed by gentle shaking to mix thoroughly, and incubation at 37 °C for 5 min. After that, 60 μL of Reagent 2 was added, mixed well by gentle shaking, and incubated at 37 °C for 1 min. The absorbance (A0) was measured at a wavelength of 405 nm using a microplate reader. Another incubation at 37 °C for 3 min was conducted, and then the absorbance (A1) was measured again. The ΔA value was calculated as ΔA = A1−A0, which represents the TBA content in the liver tissues.
Liver tissue from each group of mice was fixed in 4% formalin, embedded in paraffin, and prepared as paraffin tissue sections with a thickness of 5 μm. The sections were dewaxed and rehydrated, subsequently subjected to H&E staining, and finally examined under a microscope (Leica DM2500, Germany) for the observation of LDs.
Lipid accumulation in vivo was assessed by oil red O (ORO) staining (G1261, Solarbio, China). For liver tissue, frozen tissue sections were prepared at a thickness of 10 μm. After fixation in formalin, the sections were washed in 60% isopropanol and then stained with freshly prepared ORO working solution for 15 min. Following rinsing with 60% isopropanol, the sections were examined under a microscope.

LDAH = LDAH protein level in liver of MAFLD mice (western blot); type: in vivo, C57BL/6N mice; details: vs HFD group
FXR [2] = assay: FXR expression in oleic acid-induced HepG2 cells (western blot); type: cell-based, human; details: HepG2, OA 24 h; 15% SNS-containing serum or OCA 1 μM
Description: as §1, §2

FXR [3] = assay: FXR protein expression in liver and colon of MAFLD mice (western blot, IHC); type: in vivo, C57BL/6N mice
Description: as §3
(§4) Total protein was extracted using a protein extraction kit (PC201Plus, Epizyme). Then, the protein concentration was measured using a BCA kit (PC0020, Solarbio). The 50 μg of the total protein samples were loaded onto an SDS-PAGE gel. Following electrophoresis, the protein was transferred into polyvinylidene fluoride (PVDF) membranes. Whereafter, the membranes were first blocked with 5% nonfat dry milk in TBST and incubated with primary antibodies against FXR (bs-12867R, Bioss, 1:1000), GPAT4 (bs-15587R, Bioss, China, 1:1000), P62 (380612-50, Zenbio, China, 1:1000), HSL (344379-50, Zenbio, China, 1:1000), MAGL (PAD223Hu01, Cloud-Clone Corp, China, 1:1000), Beclin1 (BS-1353R, Bioss, China, 1:1000), ATGL (R389129-50, Bioss, China, 1:1000), LC3Ⅰ/Ⅱ (ABC929, Merck, USA, 1:1000), β-actin (bs-0061R, Bioss, China, 1:5000) and GAPDH (GB11002-100, Servicebio, China, 1:5000). After 12 h of incubation at 4 °C, the blots were proceeded with HRP-conjugated secondary antibody. Finally, the immune bands were detected using an ECL detection kit (sb-wb012, Shanghai Shenger Biotechnology Co., Ltd, China). The average gray value was quantified using Image J software.
The paraffin sections of liver were performed dewaxing followed by antigen retrieval, then add FXR primary antibody (bs-12867R, Bioss, 1:200) and GPAT4 primary antibody (bs-1924R, Bioss, 1:200), and incubate overnight at 4 °C. After the diaminobenzidine (DAB) enhanced staining, the sections were mounted with neutral gum. Finally, the images were observed and captured via a Leica DM4000B light microscope (Germany).

[4] = tested on: HSL, ATGL, MAGL, P62, Beclin1, LC3Ⅰ/Ⅱ; assay: Lipolysis- and lipophagy-related protein expression in liver of MAFLD mice (western blot); type: in vivo, C57BL/6N mice; details: vs HFD group
Description: as §3, §4

[5] = tested on: oleic acid-induced HepG2 cells; assay: ORO staining of lipid droplets in oleic acid-induced HepG2 cells; type: cell-based, human; details: HepG2, OA 24 h; 15% SNS-containing serum vs NS serum, or OCA 1 μM
Description: as §1
In vitro, the HepG2 cell cells were firstly seeded in 6-well plates (3 × 10^5 cells/well). After the cells were washed with PBS, ORO fixative was added to each well for 20–30 min, and 60% isopropyl alcohol was added to each well for 5 min. Then, ORO staining solution was used to stain the cells for 10–20 min. After the cells were washed with PBS, hematoxylin staining solution was used to re-stain the nucleus. Then, we added ORO buffer for 1 min. Finally, we used glycerin gelatin to seal the tablets. The changes in LDs were measured with Image Pro Plus v6.0 software (Media Cybemetic, USA).

GPAT4 [6] = assay: GPAT4 protein expression in liver of MAFLD mice (western blot, IHC); type: in vivo, C57BL/6N mice; details: vs HFD group
Description: as §3
as §4, with “After 12 h of incubation at 4 °C, the blots were proceeded with HRP-conjugated secondary antibody.” left out, “software. […]” for “software.”

NASH = tested on: NASH; parameters: method as in PMID 38324483; details: MAESTRO-NASH Phase III trial; cited from earlier work
[7] = tested on: T2DM and high-risk obese individuals; details: cited from earlier work

Compound: COc1ccc([C@@H]2CC(=O)c3c(O)cc(O[C@@H]4O[C@H](CO[C@@H]5O[C@@H](C)[C@H](O)[C@@H](O)[C@H]5O)[C@@H](O)[C@H](O)[C@H]4O)cc3O2)cc1O [Hesperidin]
Rmax (FXR protein): 49.9 RU

Compound: COc1cc(-c2oc3cc(O)cc(O)c3c(=O)c2O)ccc1O [Isorhamnetin]
Rmax (FXR protein): 20.3 RU

Compound: CC[C@H]1[C@@H](O)[C@@H]2[C@H](CC[C@]3(C)[C@@H]([C@H](C)CCC(=O)O)CC[C@@H]23)[C@@]2(C)CC[C@@H](O)C[C@@H]12 [OCA, Obeticholic acid]
GPAT4 expression in cells (GPAT4 [1]): inhibited GPAT4 expression in cells | liver coefficient (liver weight/body weight) (MAFLD mice): restored to normal levels | body weight at week 12 (MAFLD mice; vs HFD group): significantly decreased body weight | hepatic TBA level (MAFLD mice; vs HFD group): reduced TBA levels | liver LDs deposition (H&E and ORO staining) (MAFLD mice; vs HFD group): significantly reduced LDs compared to the HFD group | liver weight (MAFLD mice; vs HFD group): significant reduction in liver weights | serum ALT (MAFLD mice; vs HFD group): effectively reduced liver injury induced by HFD | serum AST (MAFLD mice; vs HFD group): effectively reduced liver injury induced by HFD | serum LDL-C (MAFLD mice; vs HFD group): reduced following SNS and OCA treatment | serum TC (MAFLD mice; vs HFD group): reduced following SNS and OCA treatment | serum TG (MAFLD mice; vs HFD group): reduced following SNS and OCA treatment | protein level of LDAH (LDAH): downregulated LDAH | Rmax (FXR protein): 32.0 RU | FXR expression in cells (FXR [2]): increased FXR expression | positive localization of FXR in liver tissues (FXR [3]; IHC, liver): increased the positive localization of FXR in liver tissues | FXR expression in the colon (FXR [3]; western blot, colon, vs HFD group): elevated colonic FXR expression | hepatic FXR expression (FXR [3]; western blot, liver, vs HFD group): activated its expression; also recorded: activated FXR | ATGL expression [4]: increased HSL and ATGL expression | Beclin1 expression [4]: activated Beclin1 | HSL expression [4]: increased HSL and ATGL expression | MAGL expression [4]: decreased MAGL expression | P62 expression [4]: suppressed P62 expression | intracellular LDs accumulation (ORO staining) [5]: reduced LDs deposition in cells | positive localization of GPAT4 in liver tissues (GPAT4 [6]; IHC): reduced the positive localization of GPAT4 in liver tissues | GPAT4 expression in liver (GPAT4 [6]; western blot): inhibited GPAT4 expressions

Compound: CC(C)c1cc(Oc2c(Cl)cc(-n3nc(C#N)c(=O)[nH]c3=O)cc2Cl)n[nH]c1=O [Resmetirom]
LDL-C decrease (NASH): 13–16% | NASH resolution (NASH): 26–30% | fibrosis improvement (NASH): 24–26% | tolerability / adverse events (NASH): well-tolerated, with primarily mild diarrhea and nausea, and a serious adverse event rate comparable to placebo

Compound: Semaglutide
reduction in major adverse cardiovascular events ([7]; SUSTAIN 6 and SELECT, T2DM and high-risk obese individuals): 18–20% | weight loss [7]: at least 10% | safety profile ([7]; human, in vivo): common gastrointestinal reactions and infrequent serious adverse events

Results, then the compound that gave them:

Rmax (FXR protein): 12.1 RU
Compound: O=C1C[C@@H](c2ccc(O[C@@H]3O[C@H](CO)[C@@H](O)[C@H](O)[C@H]3O)cc2)Oc2cc(O)ccc21 [Liquiritin]

Rmax (FXR protein): 181.5 RU
Compound: COc1ccc([C@@H]2CC(=O)c3c(O)cc(O[C@@H]4O[C@H](CO)[C@@H](O)[C@H](O)[C@H]4O[C@@H]4O[C@@H](C)[C@H](O)[C@@H](O)[C@H]4O)cc3O2)cc1O [Neohesperidin]

Rmax (FXR protein): 210.1 RU
Compound: COc1ccc(-c2cc(=O)c3c(OC)c(OC)c(OC)c(OC)c3o2)cc1OC [Nobiletin]
